Laboratory results: US20240000806A1, “METHODS AND MATERIALS FOR INHIBITING CB1 ACTIVITY” (University of Pittsburgh - Of the Commonwealth System of …, priority 2020, published 2024)

Each compound was assayed against CB1 (CNR1) (Homo sapiens, UniProt P21554) (assay: cAMP CNR1 Hunter cell line antagonist assay (CB1 assay)). Settings: antagonist mode, cAMP CNR1 Hunter cells, EC80 agonist; read-out: CB1 assay, Efficacy (IC50).
Type: cell-based
Method in brief: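 Antagonist mode in CNR1 Hunter cells: compound preincubated 30 min at 37 °C, then EC80 agonist for 30 min at 37 °C. cAMP measured by enzyme-fragment complementation chemiluminescence after lysis (1 h) and detection (3 h, room temperature); IC50 fitted from the dose response.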

Sequence of CB1 (CNR1) (P21554 whole entry): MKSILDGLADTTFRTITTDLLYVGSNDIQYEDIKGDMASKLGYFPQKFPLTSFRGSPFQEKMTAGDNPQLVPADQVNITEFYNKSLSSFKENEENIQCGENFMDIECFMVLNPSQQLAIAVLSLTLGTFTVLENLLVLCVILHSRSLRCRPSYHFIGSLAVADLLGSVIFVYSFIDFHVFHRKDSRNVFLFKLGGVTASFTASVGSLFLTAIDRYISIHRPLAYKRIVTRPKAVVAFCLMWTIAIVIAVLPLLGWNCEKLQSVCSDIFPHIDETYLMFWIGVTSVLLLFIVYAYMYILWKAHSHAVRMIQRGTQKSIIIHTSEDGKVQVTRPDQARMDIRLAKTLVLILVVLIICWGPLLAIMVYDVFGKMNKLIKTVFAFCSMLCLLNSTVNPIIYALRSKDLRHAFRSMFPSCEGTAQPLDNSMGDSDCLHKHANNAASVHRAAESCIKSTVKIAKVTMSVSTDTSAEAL

SMILES | IC50
CC1Oc2cc(S(=O)(=O)N3CCN(C)CC3)c(Br)cc2NC1=O (stereo not shown) [BC19219] | ≥ 25 µM
CCc1cccc(NS(=O)(=O)c2cc(Cl)cc3c2OC(CC)C(=O)N3)c1 (stereo not shown) [BC19750] | ≥ 25 µM
CC(C)CC1Oc2c(cc(Br)cc2S(=O)(=O)Nc2cccc(Cl)c2)NC1=O (stereo not shown) [BC19775] | ≥ 25 µM
CCOc1ccc(NS(=O)(=O)c2cc3c(cc2Br)NC(=O)CO3)cc1 [BC19135] | 1 to 25 µM
CCS(=O)(=O)c1cc2c(c(S(=O)(=O)Nc3ccc(C)c(F)c3)c1)OCC(=O)N2 [BC19436] | ≥ 25 µM
O=C1COc2c(cc(Cl)cc2S(=O)(=O)Nc2ccc(OC(F)(F)F)cc2)N1 [BC19172] | ≥ 25 µM
CCC1Oc2cc(S(=O)(=O)Nc3ccc(F)cc3Cl)c(Cl)cc2NC1=O (stereo not shown) [BC19755] | 1 to 25 µM
CC1Oc2cc(S(=O)(=O)NC3CCC(O)CC3)c(Br)cc2NC1=O (stereo not shown) [BC19360] | ≥ 25 µM
CS(=O)(=O)c1cc2c(c(S(=O)(=O)Nc3ccc(C#N)cc3)c1)OCC(=O)N2 [BC19431] | ≥ 25 µM
CCc1cccc(NS(=O)(=O)c2cc3c(cc2Cl)NC(=O)C(CC)O3)c1 (stereo not shown) [BC19749] | 1 to 25 µM
CC1C(=O)Nc2ccc(S(=O)(=O)N3CCCC3)cc2N1C(=O)N1CCOCC1 (stereo not shown) [BC19297] | ≥ 25 µM
CC(C)CC1Oc2cc(S(=O)(=O)Nc3ccc(F)c(F)c3)c(Br)cc2NC1=O (stereo not shown) [BC19760] | 1 to 25 µM
NS(=O)(=O)c1ccc2c(c1)N1CCCC1C(=O)N2 (stereo not shown) [BC19300] | ≥ 25 µM
Cc1ccc(NS(=O)(=O)c2cc(S(C)(=O)=O)cc3c2OCC(=O)N3)cc1F [BC19423] | ≥ 25 µM
CCc1cccc(NS(=O)(=O)c2cc(S(C)(=O)=O)cc3c2OCC(=O)N3)c1 [BC19487] | ≥ 25 µM
CC1Oc2cc(S(=O)(=O)Nc3ccc(F)cc3)c(Cl)cc2NC1=O (stereo not shown) [BC19721] | < 1 µM
CCC1Oc2cc(S(=O)(=O)NC3CCCCC3)c(Br)cc2NC1=O (stereo not shown) [BC19223] | 1 to 25 µM
CC1Oc2c(cc(Br)cc2S(=O)(=O)NC2CCC(O)CC2)NC1=O (stereo not shown) [BC19366] | ≥ 25 µM
CCC1Oc2c(cc(Br)cc2S(=O)(=O)NCc2ccc(OC(F)(F)F)cc2)NC1=O (stereo not shown) [BC19375] | 1 to 25 µM
